Data: patent publication US7816386B2, “Cinnamic, phenylpropiolic and phenylpropanoic acid derivatives useful as anti-tumor agents” (Sigma-Tau Industrie Farmaceutiche Riunite S.p.A., priority 2005, dated 2010)
Structures can show the parent of a compound that is named as a salt. Where two headings read alike, the source gives them in different places.

Tests used:
[1] = test system: NB4 human promyelocytic leukaemia; assay: Cytotoxicity on NB4 tumour cells (sulphorodamine B); type: cell-based
Procedure: (§1) To test the effects of the compounds on cell growth, NB4 human promyelocytic leukaemia, NCI-H460 non-small cell carcinoma cells and HCT-116 human colon carcinoma cells were used. NB4 and NCI-H460 tumour cells were grown RPMI 1640 containing 10% fetal bovine serum (GIBCO), whereas HCT-116 tumour cells were grown in McCoy's 5A containing 10% fetal bovine serum (GIBCO).
(§2) Tumour cells were seeded in 96-well tissue culture plates (Corning) at approximately 10% confluence and were allowed to attach and recover for at least 24 h. […] The plates were incubated for 24 h at 37° C. At the end of the treatment, for NB4 tumour cells in suspension, the procedure was performed as follows: medium culture was removed by centrifugation of the plates at 1600×g for 10 min and the surnatant was removed. 250 μl PBS were added, then the plates were centrifuged at 1600×g for 10 min, the surnatant was removed. 200 μl/well of medium culture RPMI 1640 containing 10% FCS were added and the plates were incubated at 37° C. for other 48 h. The plates were centrifuged again at 1600×g for 10 min, the medium culture was removed and 200 μl PBS and 50 μl of cold 80% TCA were added. The plates were incubated on ice for at least 1 h. TCA was removed, the plates were washed 3 times for immersion in distilled-water and dried on paper and at 40° C. for 5 min. Then 200 μl of 0.4% sulphorodamine B in 1% acetic acid were added. The plates were incubated at room temperature for other 30 min. Sulphorodamine B was removed, the plates were washed for immersion in 1% acetic acid for 3 times, then they were dried on paper and at 40° C. for 5 min. Then 200 μl Tris 10 mM were added, the plates were kept under stirring for 20 min. The survival cell was determined as optical density by a Multiskan spectrofluorimeter at 540 nm. For the tumour cells in adhesion (NCI-H460 and HCT-116), the procedure was as above mentioned, except that at the end of the treatment, the plates were washed by remotion of the surnatant and addition of PBS 3 times without centrifugation. Also the last day of the assay, the surnatant was removed without centrifugation.
(§3) The amount of cells killed was calculated as the percentage decrease in sulphorodamine B binding compared with control cultures.

[2] = test system: NCI-H460 non-small cell carcinoma cells; assay: Cytotoxicity on NCI-H460 tumour cells (sulphorodamine B); type: cell-based, human; settings: for IC50: 24 h treatment, then other 48 h in drug-free medium, sulphorodamine B; for cytotoxic effect on survival of NCI-H460 tumour cells (in words): comparison among the compounds
Procedure: as §1, §2, §3

[3] = test system: HCT-116 human colon carcinoma cells; assay: Cytotoxicity on HCT-116 tumour cells (sulphorodamine B); type: cell-based; settings: read-out: IC50 ± SD, HCT-116 (concentration which inhibits the 50% of cell survival), 24 h treatment, then other 48 h in drug-free medium
Procedure: as §1, §2, §3

[4] = Homo sapiens, read-out: IC50 ± SD, NB4 (concentration which inhibits the 50% of cell survival), NB4 tumour cells, 24 h treatment, then other 48 h in drug-free medium
[5] = Homo sapiens, NCI-H460, read-out: IC50 ± SD, NCI-H460 (concentration which inhibits the 50% of cell survival), NCI-H460 tumour cells
[6] = read-out: IC50 ± SD, NB4 (concentration which inhibits the 50% of cell survival), NB4 tumour cells, 24 h treatment, then other 48 h in drug-free medium

| SMILES | IC50 [1, 4] [nM] | IC50 [2, 5] [nM] | IC50 ([3]; Homo sapiens) [nM] | IC50 [1, 6] [nM] | cytotoxic effect on survival of NCI-H460 tumour cells (in words) ([2]; NCI-H460 tumour cells) | IC50 ([1]; read-out: IC50 ± SD, NB4 (concentration which inhibits the 50% of cell survival), NB4 tumour cells, 24 h treatment, then other 48 h in drug-free medium, hydrochloride) [nM] | IC50 ([2]; read-out: IC50 ± SD, NCI-H460 (concentration which inhibits the 50% of cell survival), NCI-H460 tumour cells) [nM] | IC50 [3] [nM] |
| --- | --- | --- | --- | --- | --- | --- | --- | --- |
| Nc1ccccc1NC(=O)/C=C/c1ccc(C=NOCc2ccc([N+](=O)[O-])cc2)cc1 [ST3070, (2E)-N-(2-aminophenyl)-3-[4-({[(4-nitrobenzyl)oxy]imino}-methyl)phenyl]-acrylamide] | > 20000 | 200000 | 33400 ± 3900 | – | – | – | – | – |
| O=C(/C=C/c1ccc(C=NNC(=O)c2ccc(Cl)cc2)cc1)NO [ST2888, (2E)-N-hydroxy-3-(4-{[(4-chlorobenzoyl)hydrazono]-methyl}phenyl)acrylamide] | 600 to 800 | 3400 ± 300 | 1800 ± 100 | 800 ± 20 | – | – | – | – |
| O=C(/C=C/c1ccc2[nH]ccc2c1)NO [ST2880, (2E)-N-hydroxy-3-(1H-indol-5-yl)acrylamide] | 1400 to 2900 | 5900 ± 500 | 2700 ± 300 | 1800 ± 20 | minor cytotoxic effect | – | – | – |
| Cl.O=C(/C=C/c1cccc(C=NOCCN2CCOCC2)c1)NO [ST3576, (2E)-N-hydroxy-3-{3-[(2-morpholin-4-ylethoxyimino)methyl]-phenyl}-acryl-amide hydrochloride] | 1400 to 2900 | 6600 ± 800 | 4000 ± 500 | – | minor cytotoxic effect | 1890 ± 80 | – | – |
| O=C(/C=C/c1ccc(C=NO)cc1)NO [ST2983, (2E)-N-hydroxy-3-{4-[(hydroxyimino)methyl]phenyl}acrylamide] | – | 6300 ± 400 | 3500 ± 300 | – | minor cytotoxic effect | – | – | – |
| O=C(/C=C/c1ccc(C=NOCc2ccc([N+](=O)[O-])cc2)cc1)NO [ST2987, (2E)-N-hydroxy-3-[4-({[(4-nitrobenzyl)oxy]imino}-methyl)phenyl]acrylamide] | 600 to 800 | 2600 ± 100 | 1200 ± 200 | 800 ± 10 | – | – | – | – |
| O=C(O)/C=C/c1ccc(C=NOCc2ccccc2)cc1 [ST3076, (2E)-3-(4-{[(benzyloxy)imino]methyl}phenyl)acrylic acid] | > 20000 | – | > 20000 | – | – | – | – | – |
| COC(=O)c1ccc(CON=Cc2ccc(/C=C/C(=O)NO)cc2)cc1 [ST3049, (2E)-N-hydroxy-3-[4-({[(4-methoxycarbonylbenzyl)oxy]imino}-methyl)phenyl]-acrylamide] | 600 to 800 | 1700 ± 100 | 1700 ± 100 | 800 ± 90 | – | – | – | – |
| O=C(/C=C/c1ccc(C=NOCCN2CCOCC2)cc1)NO [ST3050, (2E)-N-hydroxy-3-{4-[(2-morpholin-4-ylethoxyimino)methyl]-phenyl}-acryl-amide] | 1400 to 2900 | 2900 ± 400 | 1800 ± 100 | 1700 ± 200 | – | – | – | – |
| O=C(CCc1ccc(C=NOCc2ccc([N+](=O)[O-])cc2)cc1)NO [ST3330, N-hydroxy-3-[4-({[(4-nitrobenzyl)oxy]imino}methyl)phenyl]propanamide] | 950 ± 60 | 7700 ± 1000 | 3100 ± 100 | – | minor cytotoxic effect | – | – | – |
| O=C(/C=C/c1ccc(C=NOc2ccccc2)cc1)NO [ST2985, (2E)-N-hydroxy-3-{4-[(phenoxyimino)methyl]phenyl}acrylamide] | 1400 to 2900 | 5100 ± 300 | 3700 ± 400 | 2700 ± 90 | minor cytotoxic effect | – | – | – |
| O=C(/C=C/c1ccc(C=NOCc2c(F)c(F)c(F)c(F)c2F)cc1)NO [ST2986, (2E)-N-hydroxy-3-[4-({[(pentafluorobenzyl)oxy]imino}-methyl)phenyl]-acryl-amide] | – | – | – | 700 ± 70 | – | – | 1600 ± 70 | 2400 ± 100 |
| O=C(O)/C=C/c1ccc(C=NOCc2ccc([N+](=O)[O-])cc2)cc1 [ST3075, (2E)-3-[4-({[(4-nitrobenzyl)oxy]imino}-methyl)phenyl]acrylic acid] | > 20000 | 21300 ± 3000 | > 20000 | – | – | – | – | – |
| O=C(/C=C/c1ccc(C=NOCc2ccccc2)cc1)NO [ST2840, (2E)-3-(4-{[(benzyloxy)imino]methyl}phenyl)-N-hydroxyacrylamide] | 600 to 800 | 1600 ± 100 | 2800 ± 200 | 600 ± 6 | – | – | – | – |
| C=CCON=Cc1ccc(/C=C/C(=O)NO)cc1 [ST2984, (2E)-N-hydroxy-3-(4-{[(allyloxy)imino]methyl}phenyl)acrylamide] | 1400 to 2900 | 3200 ± 90 | 3500 ± 70 | 1400 ± 70 | – | – | – | – |
| Nc1ccccc1NC(=O)/C=C/c1ccc(C=NOCCN2CCOCC2)cc1 [ST3573, (2E)-N-(2-Amino-phenyl)-3-{4-[(2-morpholin-4-yl-ethoxyimino)methyl]-phenyl}-acrylamide hydrochloride] | 8870 ± 600 | > 20000 | > 20000 | – | – | – | – | – |
